# Where two headings read alike, the source gives them in different places.
# Legend:
# [1] = molecular target: human CYP2D6 (Homo sapiens, UniProt P10635)
# [2] = molecular target: human CYP2C9 (Homo sapiens, UniProt P11712)
# [3] = molecular target: human CYP2C19 (Homo sapiens, UniProt P33261)
# [4] = molecular target: Photinus pyralis (firefly) luciferase (Photinus pyralis, UniProt P08659); assay: biochemical; format: biochemical
# [5] = molecular target: T1, human CYP1A2 (Homo sapiens, UniProt P05177)
# T1 sequence (P05177 1-516): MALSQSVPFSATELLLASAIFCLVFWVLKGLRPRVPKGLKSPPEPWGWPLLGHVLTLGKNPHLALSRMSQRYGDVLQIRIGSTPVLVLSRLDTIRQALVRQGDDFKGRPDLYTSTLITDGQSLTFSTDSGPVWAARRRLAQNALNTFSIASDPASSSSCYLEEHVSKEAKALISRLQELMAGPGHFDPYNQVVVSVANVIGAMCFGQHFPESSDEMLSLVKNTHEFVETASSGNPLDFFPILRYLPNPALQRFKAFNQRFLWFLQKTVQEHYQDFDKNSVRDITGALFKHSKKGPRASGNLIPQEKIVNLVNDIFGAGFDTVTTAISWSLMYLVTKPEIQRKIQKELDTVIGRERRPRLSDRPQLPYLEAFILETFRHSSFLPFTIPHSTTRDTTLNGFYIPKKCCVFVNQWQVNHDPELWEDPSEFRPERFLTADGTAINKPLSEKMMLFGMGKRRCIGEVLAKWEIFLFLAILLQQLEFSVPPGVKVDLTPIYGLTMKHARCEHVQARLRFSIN
# [6] = molecular target: CYP3A4 (Homo sapiens, UniProt P08684)
# Chain of CYP3A4 (P08684 whole entry): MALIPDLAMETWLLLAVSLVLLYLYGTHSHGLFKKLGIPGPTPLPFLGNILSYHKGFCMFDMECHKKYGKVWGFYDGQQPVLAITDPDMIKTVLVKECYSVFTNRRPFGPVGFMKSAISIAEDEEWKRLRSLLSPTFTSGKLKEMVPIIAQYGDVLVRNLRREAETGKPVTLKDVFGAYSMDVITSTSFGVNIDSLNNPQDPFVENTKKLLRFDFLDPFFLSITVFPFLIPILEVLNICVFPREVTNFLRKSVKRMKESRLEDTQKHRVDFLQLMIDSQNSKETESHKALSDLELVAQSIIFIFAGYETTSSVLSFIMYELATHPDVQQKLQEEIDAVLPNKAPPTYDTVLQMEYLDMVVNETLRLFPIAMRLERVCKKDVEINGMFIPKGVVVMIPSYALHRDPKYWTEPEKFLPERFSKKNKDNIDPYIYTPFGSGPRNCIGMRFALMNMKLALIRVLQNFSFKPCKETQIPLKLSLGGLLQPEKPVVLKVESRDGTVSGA
# [7] = read-out: Luciferase IC50 (half-maximal inhibitory concentration)
# Chain of Photinus pyralis (firefly) luciferase (P08659 whole entry): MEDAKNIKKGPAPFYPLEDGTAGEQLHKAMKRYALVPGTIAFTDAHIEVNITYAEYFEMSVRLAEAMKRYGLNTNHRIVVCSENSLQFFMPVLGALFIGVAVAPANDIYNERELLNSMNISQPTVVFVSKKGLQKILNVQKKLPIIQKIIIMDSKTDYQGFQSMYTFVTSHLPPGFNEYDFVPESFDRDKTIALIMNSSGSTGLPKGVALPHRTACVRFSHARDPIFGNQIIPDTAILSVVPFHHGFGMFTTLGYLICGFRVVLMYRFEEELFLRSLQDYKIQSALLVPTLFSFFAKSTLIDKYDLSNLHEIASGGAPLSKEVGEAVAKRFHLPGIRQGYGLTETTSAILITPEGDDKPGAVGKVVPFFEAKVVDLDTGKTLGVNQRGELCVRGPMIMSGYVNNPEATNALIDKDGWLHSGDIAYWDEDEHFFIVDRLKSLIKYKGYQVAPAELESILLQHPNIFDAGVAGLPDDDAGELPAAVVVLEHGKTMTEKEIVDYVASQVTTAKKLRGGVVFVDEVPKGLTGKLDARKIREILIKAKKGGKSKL
# Chain of human CYP2D6 (P10635 whole entry): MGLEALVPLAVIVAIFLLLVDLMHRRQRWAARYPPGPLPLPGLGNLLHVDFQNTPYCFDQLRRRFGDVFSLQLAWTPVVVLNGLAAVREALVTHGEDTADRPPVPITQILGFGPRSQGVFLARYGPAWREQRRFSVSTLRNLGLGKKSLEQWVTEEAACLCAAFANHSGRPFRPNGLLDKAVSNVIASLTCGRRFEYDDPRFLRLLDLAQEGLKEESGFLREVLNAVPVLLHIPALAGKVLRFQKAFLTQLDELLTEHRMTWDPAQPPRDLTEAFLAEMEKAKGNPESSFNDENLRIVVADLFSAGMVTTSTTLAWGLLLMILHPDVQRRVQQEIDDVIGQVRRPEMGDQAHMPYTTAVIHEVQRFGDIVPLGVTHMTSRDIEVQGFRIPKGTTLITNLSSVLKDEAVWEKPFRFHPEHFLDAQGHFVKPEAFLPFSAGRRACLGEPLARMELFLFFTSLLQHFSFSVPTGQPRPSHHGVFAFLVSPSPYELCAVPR
# Chain of human CYP2C9 (P11712 whole entry): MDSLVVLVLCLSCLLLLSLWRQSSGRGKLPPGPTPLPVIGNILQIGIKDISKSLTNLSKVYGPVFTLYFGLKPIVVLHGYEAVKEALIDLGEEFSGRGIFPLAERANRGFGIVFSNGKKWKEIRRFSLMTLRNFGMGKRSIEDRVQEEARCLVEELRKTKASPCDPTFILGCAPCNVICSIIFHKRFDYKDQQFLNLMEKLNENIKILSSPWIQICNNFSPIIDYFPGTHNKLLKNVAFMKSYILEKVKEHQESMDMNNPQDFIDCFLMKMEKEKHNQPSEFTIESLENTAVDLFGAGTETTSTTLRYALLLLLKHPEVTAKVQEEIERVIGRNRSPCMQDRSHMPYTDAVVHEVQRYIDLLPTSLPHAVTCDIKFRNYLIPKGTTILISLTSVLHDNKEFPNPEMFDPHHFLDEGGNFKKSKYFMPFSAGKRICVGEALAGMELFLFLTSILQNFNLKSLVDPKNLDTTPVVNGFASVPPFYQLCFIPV
# Chain of human CYP2C19 (P33261 whole entry): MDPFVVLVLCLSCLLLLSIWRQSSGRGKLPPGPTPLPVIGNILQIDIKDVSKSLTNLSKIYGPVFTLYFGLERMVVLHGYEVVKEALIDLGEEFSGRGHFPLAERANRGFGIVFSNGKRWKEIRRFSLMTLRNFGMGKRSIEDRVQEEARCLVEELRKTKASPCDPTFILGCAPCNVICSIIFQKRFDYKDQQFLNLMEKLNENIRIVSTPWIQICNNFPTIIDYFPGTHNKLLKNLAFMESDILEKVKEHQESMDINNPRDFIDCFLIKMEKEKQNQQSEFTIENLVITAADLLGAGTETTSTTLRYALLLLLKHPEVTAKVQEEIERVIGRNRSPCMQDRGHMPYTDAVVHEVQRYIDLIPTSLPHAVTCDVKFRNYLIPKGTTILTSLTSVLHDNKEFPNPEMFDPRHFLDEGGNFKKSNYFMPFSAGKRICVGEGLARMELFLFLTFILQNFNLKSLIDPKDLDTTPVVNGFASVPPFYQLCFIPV
structure (smiles),measurement,setting,value
"c1cc(CCCc2ccncc2)ccn1 [4,4'-Propane-1,3-diyldipyridine]",IC50,[1],1540 nM
same,IC50,[2],5050 nM
same,IC50,[3],1500 nM
same,Luciferase IC50,[4],Inactive
same,IC50,[5],1540 nM
same,IC50,[6],870 nM
Cc1cccc2c1cc1ccc3cccc4ccc2c1c34 [7-Methylbenzo(a)pyrene],CYP2D6 IC50,[1],Inactive
same,CYP2C9 IC50,[2],Inactive
same,CYP2C19 IC50,[3],Inactive
same,Luciferase IC50,[4],Inactive
same,AC50,[5],160 nM
same,IC50,[5],160 nM
same,AC50,[6],73000 nM
same,CYP3A4 IC50,[6],72.98 ± 8.39 (145 ± 22) µM
"O=C1CCCc2c1cc1ccc3cccc4ccc2c1c34 [9,10-Dihydrobenzo[a]pyren-7(8H)-one]",CYP2D6 IC50 (half-maximal inhibitory concentration),[1],Inactive
same,CYP2C9 Efficacy (in parenthesis),[2],5.32 ± 0.68 (-71 ± 3) %
same,IC50,[2],5320 nM
same,CYP2C19 Efficacy (in parenthesis),[3],26.27 ± 7.32 (-125 ± 17) %
same,IC50,[3],26300 nM
same,Luciferase Efficacy (in parenthesis),[4],9.87 ± 1.68 (-53 ± 7) %
same,IC50,[4]; [7],9870 nM
same,CYP1A2 Efficacy (in parenthesis),[5],0.28 ± 0.05 (-100 ± 3) %
same,IC50,[5],280 nM
same,CYP3A4 Efficacy (in parenthesis),[6],9.09 ± 1.05 (-72 ± 4) %
same,IC50,[6],9090 nM
N#Cc1cc2ccccc2c2ccccc12 [9-Cyanophenanthrene],CYP2D6 IC50,[1],Inactive
same,IC50,[2],39300 nM
same,IC50,[3],29300 nM
same,IC50,[4]; read-out: Luciferase IC50,62400 nM
same,IC50,[5],60 nM
same,CYP3A4 IC50,[6],Inactive
Oc1cc2ccccc2c2ccccc12 [9-Phenanthrol],CYP2D6 Efficacy (in parenthesis),[1],2.53 ± 0.29 (-109 ± 3) %
same,IC50,[1],2530 nM
same,CYP2C9 Efficacy (in parenthesis),[2],4.41 ± 1.07 (-106 ± 2) %
same,IC50,[2],4410 nM
same,CYP2C19 Efficacy (in parenthesis),[3],1.22 ± 0.17 (-132 ± 15) %
same,IC50,[3],1220 nM
same,Luciferase Efficacy (in parenthesis),[4],71.29 ± 8.19 (-61 ± 21) %
same,IC50,[4]; [7],71300 nM
same,CYP1A2 Efficacy (in parenthesis),[5],0.05 ± 0.01 (-99 ± 4) %
same,IC50,[5],50 nM
same,CYP3A4 Efficacy (in parenthesis),[6],6.1 ± 0.4 (-91 ± 4) %
O=C1NCN(c2ccccc2)C12CCN(CCCOc1ccc(F)cc1)CC2 [AMI-193],AC50,[1],600 nM
same,IC50,[1],600 nM
same,CYP2C9 IC50,[2],Inactive
same,CYP2C19 AC50 (half-maximal activity concentration),[3],Inconclusive inhibitor
same,CYP2C19 IC50,[3],Inactive
same,Luciferase IC50,[4],Inactive
same,CYP1A2 IC50,[5],Inactive
same,AC50,[6],4720 nM
same,CYP3A4 IC50,[6],4.72 ± 0.31 (133 ± 10) µM
COC(=O)c1cc(Cl)ccc1NS(=O)(=O)C(F)(F)F [Amidoflumet],CYP2D6 IC50 (half-maximal inhibitory concentration),[1],Inactive
same,CYP2C9 IC50 (half-maximal inhibitory concentration),[2],Inactive
same,CYP2C19 IC50 (half-maximal inhibitory concentration),[3],Inactive
same,Luciferase IC50 (half-maximal inhibitory concentration),[4],Inactive
same,IC50,[5],910 nM
same,CYP3A4 IC50 (half-maximal inhibitory concentration),[6],Inactive
COP(=S)(NC(C)C)Oc1ccc(C)cc1[N+](=O)[O-] (centres unmarked) [Amiprofos-methyl],CYP2D6 Efficacy (in parenthesis),[1],41.71 ± 5.32 (-58 ± 14) %
same,IC50,[1],41700 nM
same,CYP2C9 Efficacy (in parenthesis),[2],2.74 ± 0.38 (-109 ± 3) %
same,IC50,[2],2740 nM
same,CYP2C19 Efficacy (in parenthesis),[3],0.41 ± 0.19 (-132 ± 27) %
same,IC50,[3],410 nM
same,Luciferase IC50 (half-maximal inhibitory concentration),[4],Inactive
same,CYP1A2 Efficacy (in parenthesis),[5],12.35 ± 5.02 (-104 ± 9) %
same,IC50,[5],12400 nM
same,CYP3A4 Efficacy (in parenthesis),[6],0.55 ± 0.08 (-87 ± 1) %
same,IC50,[6],550 nM
COP(=S)(OC)SCn1nnc2ccccc2c1=O [Azinphos-methyl],CYP2D6 Efficacy (in parenthesis),[1]; human,55.48 ± 13.48 (-75 ± 13) %
same,CYP2C9 Efficacy (in parenthesis),[2]; human,3.88 ± 0.66 (-99 ± 12) %
same,CYP2C19 Efficacy (in parenthesis),[3]; human,1.01 ± 0.12 (-134 ± 9) %
same,Luciferase Efficacy (in parenthesis),[4],47.70 ± 13.48 (-40 ± 2) %
same,CYP1A2 Efficacy (in parenthesis),[5]; human,28.26 ± 0 (-93 ± 8) %
same,CYP3A4 Efficacy (in parenthesis),[6],11.45 ± 2.62 (-87 ± 5) %
COc1ccc(OC)c(N=Nc2c(O)ccc3ccccc23)c1 [C.I. Solvent Red 80],IC50,[1],13600 nM
same,IC50,[2],6330 nM
same,IC50,[3],8000 nM
same,IC50,[4]; [7],6970 nM
same,IC50,[5],750 nM
same,IC50,[6],2790 nM
